Assay results published in PMC9161374 (Science Translational Medicine, 2022).

Key:
Type in all cases: cell-based
[1] = tested on: SARS-CoV-2 replicon system (pBAC-SARS-CoV-2-Replicon-Luc); assay: microbe, parasite or virus in culture
SARS-CoV-2 (B.1) = assay: Anti-SARS-CoV-2 activity in Vero E6 cells (viral yield by qRT-PCR)
[2] = tested on: SARS-CoV-2 (Beta, B.1.351); assay: microbe, parasite or virus in culture; conditions: for % Inhibition: beta
[3] = tested on: SARS-CoV-2 (Delta, B.1.617.2); assay: microbe, parasite or virus in culture

## CC(C)C(=O)OC[C@H]1O[C@@](C#N)(c2ccc3c(N)ncnn23)[C@H](O)[C@@H]1O [ATV006]
[1]
  activity in the replicon system in comparison with parent GS-441524: improved the inhibitory activities
[1]; Severe acute respiratory syndrome coronavirus 2, HEK-293T, 60 h, read-out: EC50 (Confidence 95%), replicon
  EC50: 521 nM
[1]; Severe acute respiratory syndrome coronavirus 2, HEK-293T, 60 h, read-out: EC90 (Confidence 95%), replicon
  EC90: 3220 nM
SARS-CoV-2 (B.1); 1 μM, replicates, sheet Fig.S3
  % Inhibition: 3.722%
SARS-CoV-2 (B.1); 2 μM, replicates, sheet Fig.S3
  % Inhibition: 87.0049%
SARS-CoV-2 (B.1); 5 μM, replicates, sheet Fig.S3
  % Inhibition: 91.6411%
SARS-CoV-2 (B.1); 10 μM, replicates, sheet Fig.S3
  % Inhibition: 90.9393%
SARS-CoV-2 (B.1); B.1, 1 uM, Vero E6, replicates, 1 µM
  % Inhibition: 3.249%
SARS-CoV-2 (B.1); B.1, 2 uM, Vero E6, replicates, 2 µM
  % Inhibition: 99.386%
SARS-CoV-2 (B.1); B.1, 5 uM, Vero E6, replicates, 5 µM
  % Inhibition: 99.8149%
SARS-CoV-2 (B.1); B.1, 10 uM, Vero E6, replicates, 10 µM
  % Inhibition: 99.9851%
SARS-CoV-2 (B.1); B.1, 50 uM, Vero E6, replicates, 50 µM
  % Inhibition: 99.991%
SARS-CoV-2 (B.1); Severe acute respiratory syndrome coronavirus 2, Vero C1008, 0.1 μM, replicates, sheet Fig.S3
  inhibition at 0.1 µM: 0%
SARS-CoV-2 (B.1); Severe acute respiratory syndrome coronavirus 2, Vero C1008, 0.5 μM, replicates, sheet Fig.S3
  inhibition at 0.5 µM: 0%
SARS-CoV-2 (B.1); Severe acute respiratory syndrome coronavirus 2, Vero C1008, 2 μM, replicates, sheet Fig.S3
  inhibition at 2 µM: 87.7%
SARS-CoV-2 (B.1); Severe acute respiratory syndrome coronavirus 2, Vero C1008, 5 μM, replicates, sheet Fig.S3
  inhibition at 5 µM: 93.3%
SARS-CoV-2 (B.1); Severe acute respiratory syndrome coronavirus 2, Vero C1008, 10 μM, replicates, sheet Fig.S3
  inhibition at 10 µM: 93.2%
SARS-CoV-2 (B.1); Severe acute respiratory syndrome coronavirus 2, Vero C1008, B.1, 0.01 uM, Vero E6, replicates
  inhibition at 0.01 µM: 0%
SARS-CoV-2 (B.1); Severe acute respiratory syndrome coronavirus 2, Vero C1008, B.1, 0.1 uM, Vero E6, replicates
  inhibition at 0.1 µM: 0%
SARS-CoV-2 (B.1); Severe acute respiratory syndrome coronavirus 2, Vero C1008, B.1, 0.25 uM, Vero E6, replicates
  inhibition at 0.25 µM: 0%
SARS-CoV-2 (B.1); Severe acute respiratory syndrome coronavirus 2, Vero C1008, B.1, 0.5 uM, Vero E6, replicates
  inhibition at 0.5 µM: 0%
SARS-CoV-2 (B.1); Severe acute respiratory syndrome coronavirus 2, Vero C1008, B.1, 1 uM, Vero E6, replicates
  inhibition at 1 µM: 3.85%
SARS-CoV-2 (B.1); Severe acute respiratory syndrome coronavirus 2, Vero C1008, B.1, 2 uM, Vero E6, replicates
  inhibition at 2 µM: 97.4%
SARS-CoV-2 (B.1); Severe acute respiratory syndrome coronavirus 2, Vero C1008, B.1, 5 uM, Vero E6, replicates
  inhibition at 5 µM: 99.8%
SARS-CoV-2 (B.1); Severe acute respiratory syndrome coronavirus 2, Vero C1008, B.1, 10 uM, Vero E6, replicates
  inhibition at 10 µM: 99.9%
SARS-CoV-2 (B.1); Severe acute respiratory syndrome coronavirus 2, Vero C1008, B.1, 50 uM, Vero E6, replicates
  inhibition at 50 µM: 100%
SARS-CoV-2 (B.1); Severe acute respiratory syndrome coronavirus 2, Vero C1008, read-out: EC90 (Confidence 95%)
  EC90: 2180 nM
SARS-CoV-2 (B.1); Severe acute respiratory syndrome coronavirus 2, Vero C1008, MOI 0.05, 48 h
  EC50: 1360 nM
[2]; Severe acute respiratory syndrome coronavirus 2, Vero C1008, 48 h, read-out: EC50 in Vero E6 cells, SARS-CoV-2 (Beta, B.1.351)
  EC50: 1130 nM
[2]; Severe acute respiratory syndrome coronavirus 2, Vero C1008, beta, 0.01 uM, Vero E6, replicates
  inhibition at 0.01 µM: 0%
[2]; Severe acute respiratory syndrome coronavirus 2, Vero C1008, beta, 0.1 uM, Vero E6, replicates
  inhibition at 0.1 µM: 0%
[2]; Severe acute respiratory syndrome coronavirus 2, Vero C1008, beta, 0.25 uM, Vero E6, replicates
  inhibition at 0.25 µM: 0%
[2]; Severe acute respiratory syndrome coronavirus 2, Vero C1008, beta, 0.5 uM, Vero E6, replicates
  inhibition at 0.5 µM: 0%
[2]; Severe acute respiratory syndrome coronavirus 2, Vero C1008, beta, 1 uM, Vero E6, replicates
  inhibition at 1 µM: 32.1%
[2]; Severe acute respiratory syndrome coronavirus 2, Vero C1008, beta, 2 uM, Vero E6, replicates
  inhibition at 2 µM: 99.6%
[2]; Severe acute respiratory syndrome coronavirus 2, Vero C1008, beta, 5 uM, Vero E6, replicates
  inhibition at 5 µM: 99.7%
[2]; Severe acute respiratory syndrome coronavirus 2, Vero C1008, beta, 10 uM, Vero E6, replicates
  inhibition at 10 µM: 99.9%
[2]; Severe acute respiratory syndrome coronavirus 2, Vero C1008, beta, 50 uM, Vero E6, replicates
  inhibition at 50 µM: 99.9%
[2]; Severe acute respiratory syndrome coronavirus 2, Vero C1008, read-out: EC90 (Confidence 95%), Vero-E6, Beta B.1.351
  EC90: 1360 nM
[2]; 1 uM, Vero E6, replicates
  % Inhibition: 16.537%
[2]; 2 uM, Vero E6, replicates
  % Inhibition: 99.486%
[2]; 5 uM, Vero E6, replicates
  % Inhibition: 99.5312%
[2]; 10 uM, Vero E6, replicates
  % Inhibition: 99.9431%
[2]; 50 uM, Vero E6, replicates
  % Inhibition: 99.9484%
[3]; Severe acute respiratory syndrome coronavirus 2, Vero C1008, 48 h, read-out: EC50 in Vero E6 cells, SARS-CoV-2 (Delta, B.1.617.2)
  EC50: 349 nM
[3]; Severe acute respiratory syndrome coronavirus 2, Vero C1008, delta, 0.01 uM, Vero E6, replicates
  inhibition at 0.01 µM: 0%
[3]; Severe acute respiratory syndrome coronavirus 2, Vero C1008, delta, 0.1 uM, Vero E6, replicates
  inhibition at 0.1 µM: 0%
[3]; Severe acute respiratory syndrome coronavirus 2, Vero C1008, delta, 0.25 uM, Vero E6, replicates
  inhibition at 0.25 µM: 13.4%
[3]; Severe acute respiratory syndrome coronavirus 2, Vero C1008, delta, 0.5 uM, Vero E6, replicates
  inhibition at 0.5 µM: 86.8%
